# Source: PubChem BioAssay AID2060505 (Molecular Pharmacology Branch, DTP, NCI, 2025)
# System: 633275-114-R-J1-PDC complex spheroids, viability
# Assay: Anticancer human tumor 633275-114-R-J1-PDC patient-derived endometrial adenocarcinoma cell line growth inhibition [GQUAD]
# Details: for IC50: curve of first compound; for viability, T/C: stronger effect = lower value
# Procedure, shortened: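 Multi-cell-type spheroids of tumor cells with HUVEC and mesenchymal stem cells, treated with drug combinations. Concentrations descend in half-log steps from near clinical Cmax, or from 10 microM where Cmax is unknown; viability read-out.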
# [1] = second compound 0.0316 µM, first compound 0.000999 µM
# [2] = second compound 0.0316 µM, first compound 0.00316 µM
# [3] = second compound 0.0316 µM, first compound 0.00999 µM
# [4] = second compound 0.0316 µM, first compound 0.0316 µM
# [5] = second compound 0.0316 µM, first compound 0.0999 µM
# [6] = second compound 0.0316 µM, first compound 0.316 µM
# [7] = second compound 0.1 µM, first compound 0.000999 µM
# [8] = second compound 0.1 µM, first compound 0.00316 µM
# [9] = second compound 0.1 µM, first compound 0.00999 µM
# [10] = second compound 0.1 µM, first compound 0.0316 µM
# [11] = second compound 0.1 µM, first compound 0.0999 µM
# [12] = second compound 0.1 µM, first compound 0.316 µM
# [13] = second compound 0.316 µM, first compound 0.000999 µM
# [14] = second compound 0.316 µM, first compound 0.00316 µM
# [15] = second compound 0.316 µM, first compound 0.00999 µM
# [16] = second compound 0.316 µM, first compound 0.0316 µM
# [17] = second compound 0.316 µM, first compound 0.0999 µM
# [18] = second compound 0.316 µM, first compound 0.316 µM
# [19] = second compound 1 µM, first compound 0.000999 µM
# [20] = second compound 1 µM, first compound 0.00316 µM
# [21] = second compound 1 µM, first compound 0.00999 µM
# [22] = second compound 1 µM, first compound 0.0316 µM
# [23] = second compound 1 µM, first compound 0.0999 µM
# [24] = second compound 1 µM, first compound 0.316 µM
# [25] = second compound 3.16 µM, first compound 0.000999 µM
# [26] = second compound 3.16 µM, first compound 0.00316 µM
# [27] = second compound 3.16 µM, first compound 0.00999 µM
# [28] = second compound 3.16 µM, first compound 0.0316 µM
# [29] = second compound 3.16 µM, first compound 0.0999 µM
# [30] = second compound 3.16 µM, first compound 0.316 µM
# [31] = second compound 10 µM, first compound 0.000999 µM
# [32] = second compound 10 µM, first compound 0.00316 µM
# [33] = second compound 10 µM, first compound 0.00999 µM
# [34] = second compound 10 µM, first compound 0.0316 µM
# [35] = second compound 10 µM, first compound 0.0999 µM
# [36] = second compound 10 µM, first compound 0.316 µM
# 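Further: spheroids exposed to the agents for seven days.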
# 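Wherever viability, T/C is given: percent of DMSO vehicle control viability which is 100%.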
compound,measurement,setting,value
Cc1[nH]c2ccccc2c1CCNCc1ccc(/C=C/C(=O)NO)cc1 + Cc1[nH]c2ccc(F)cc2c1-c1nc2c3cccnc3c3ncccc3c2[nH]1,IC50,second compound 0.0316 µM,63 nM
same,IC50,second compound 0.1 µM,83.5 nM
same,IC50,second compound 0.316 µM,65.7 nM
same,IC50,second compound 1 µM,54.6 nM
same,IC50,second compound 3.16 µM,21 nM
same,IC50,second compound 10 µM,16.2 nM
same,"viability, T/C",[1],103%
same,"viability, T/C",[2],85.6%
same,"viability, T/C",[3],79.1%
same,"viability, T/C",[4],64.2%
same,"viability, T/C",[5],41.4%
same,"viability, T/C",[6],19.3%
same,"viability, T/C",[7],90.6%
same,"viability, T/C",[8],90.4%
same,"viability, T/C",[9],81.6%
same,"viability, T/C",[10],70.5%
same,"viability, T/C",[11],46.1%
same,"viability, T/C",[12],17.3%
same,"viability, T/C",[13],94%
same,"viability, T/C",[14],94%
same,"viability, T/C",[15],71.2%
same,"viability, T/C",[16],62.3%
same,"viability, T/C",[17],44.8%
same,"viability, T/C",[18],19.7%
same,"viability, T/C",[19],87.6%
same,"viability, T/C",[20],78.7%
same,"viability, T/C",[21],71.7%
same,"viability, T/C",[22],57.2%
same,"viability, T/C",[23],41.9%
same,"viability, T/C",[24],21.2%
same,"viability, T/C",[25],69.8%
same,"viability, T/C",[26],64.9%
same,"viability, T/C",[27],53.6%
same,"viability, T/C",[28],45.1%
same,"viability, T/C",[29],41.3%
same,"viability, T/C",[30],21.7%
same,"viability, T/C",[31],62%
same,"viability, T/C",[32],65.4%
same,"viability, T/C",[33],48.7%
same,"viability, T/C",[34],45.5%
same,"viability, T/C",[35],36.4%
same,"viability, T/C",[36],20.8%
Cn1ncnc1[C@H]1c2n[nH]c(=O)c3cc(F)cc(c23)N[C@@H]1c1ccc(F)cc1 + Cc1cnc(CNC(=O)c2c(=O)c3ccc(N4CCCN(C)CC4)nc3n3c2sc2ccccc23)cn1,IC50,second compound 0.0316 µM,114 nM
same,IC50,second compound 0.1 µM,< 0.999 nM
same,IC50,second compound 0.316 µM,< 0.999 nM
same,IC50,second compound 1 µM,< 0.999 nM
same,IC50,second compound 3.16 µM,< 0.999 nM
same,IC50,second compound 10 µM,< 0.999 nM
same,"viability, T/C",[1],64%
same,"viability, T/C",[2],63.3%
same,"viability, T/C",[3],63.2%
same,"viability, T/C",[4],58.9%
same,"viability, T/C",[5],46.5%
same,"viability, T/C",[6],44.3%
same,"viability, T/C",[7],47.9%
same,"viability, T/C",[8],51.3%
same,"viability, T/C",[9],50.2%
same,"viability, T/C",[10],42.2%
same,"viability, T/C",[11],39.3%
same,"viability, T/C",[12],38.2%
same,"viability, T/C",[13],41.9%
same,"viability, T/C",[14],43.7%
same,"viability, T/C",[15],43.2%
same,"viability, T/C",[16],37.7%
same,"viability, T/C",[17],37.6%
same,"viability, T/C",[18],34.8%
same,"viability, T/C",[19],39.1%
same,"viability, T/C",[20],37.4%
same,"viability, T/C",[21],37.9%
same,"viability, T/C",[22],35%
same,"viability, T/C",[23],34%
same,"viability, T/C",[24],34%
same,"viability, T/C",[25],31.8%
same,"viability, T/C",[26],38.6%
same,"viability, T/C",[27],36.6%
same,"viability, T/C",[28],36.7%
same,"viability, T/C",[29],29.4%
same,"viability, T/C",[30],29.8%
same,"viability, T/C",[31],32.8%
same,"viability, T/C",[32],31%
same,"viability, T/C",[33],28.4%
same,"viability, T/C",[34],30.9%
same,"viability, T/C",[35],28.9%
same,"viability, T/C",[36],26.6%
CC[C@@]1(O)C(=O)OCc2c1cc1n(c2=O)Cc2cc3c(CN(C)C)c(O)ccc3nc2-1 + Cc1[nH]c2ccc(F)cc2c1-c1nc2c3cccnc3c3ncccc3c2[nH]1,IC50,second compound 0.0316 µM,79.9 nM
same,IC50,second compound 0.1 µM,83.9 nM
same,IC50,second compound 0.316 µM,74.4 nM
same,IC50,second compound 1 µM,73.1 nM
same,IC50,second compound 3.16 µM,46.3 nM
same,IC50,second compound 10 µM,43.4 nM
same,"viability, T/C",[1],98.6%
same,"viability, T/C",[2],91.9%
same,"viability, T/C",[3],86.8%
same,"viability, T/C",[4],69.6%
same,"viability, T/C",[5],43.9%
same,"viability, T/C",[6],36.9%
same,"viability, T/C",[7],93.8%
same,"viability, T/C",[8],93.6%
same,"viability, T/C",[9],87.7%
same,"viability, T/C",[10],73.4%
same,"viability, T/C",[11],45.3%
same,"viability, T/C",[12],35.8%
same,"viability, T/C",[13],94%
same,"viability, T/C",[14],99.1%
same,"viability, T/C",[15],88.2%
same,"viability, T/C",[16],71.2%
same,"viability, T/C",[17],41.8%
same,"viability, T/C",[18],36.5%
same,"viability, T/C",[19],90.4%
same,"viability, T/C",[20],91.8%
same,"viability, T/C",[21],79.3%
same,"viability, T/C",[22],68%
same,"viability, T/C",[23],41.9%
same,"viability, T/C",[24],36.3%
same,"viability, T/C",[25],71.7%
same,"viability, T/C",[26],70.4%
same,"viability, T/C",[27],69.1%
same,"viability, T/C",[28],56.5%
same,"viability, T/C",[29],37.1%
same,"viability, T/C",[30],33.2%
same,"viability, T/C",[31],66.5%
same,"viability, T/C",[32],74.4%
same,"viability, T/C",[33],71%
same,"viability, T/C",[34],54.6%
same,"viability, T/C",[35],36.5%
same,"viability, T/C",[36],29.7%
O=C(c1cc(Cc2n[nH]c(=O)c3ccccc23)ccc1F)N1CCN(C(=O)C2CC2)CC1 + CN(C)c1ccc(Nc2c3ccc(NC(=O)CCN4CCCC4)cc3nc3cc(NC(=O)CCN4CCCC4)ccc23)cc1,IC50,second compound 0.0316 µM,9960 nM
same,IC50,second compound 0.1 µM,9890 nM
same,IC50,second compound 0.316 µM,> 10000 nM
same,IC50,second compound 1 µM,> 10000 nM
same,IC50,second compound 3.16 µM,5360 nM
same,IC50,second compound 10 µM,< 31.6 nM
same,"viability, T/C",[4],88.7%
same,"viability, T/C","second compound 0.0316 µM, first compound 0.1 µM",93.8%
same,"viability, T/C",[6],95%
same,"viability, T/C","second compound 0.0316 µM, first compound 1 µM",80%
same,"viability, T/C","second compound 0.0316 µM, first compound 3.16 µM",81.6%
same,"viability, T/C","second compound 0.0316 µM, first compound 10 µM",49.2%
same,"viability, T/C",[10],95.5%
same,"viability, T/C","second compound 0.1 µM, first compound 0.1 µM",98.1%
same,"viability, T/C",[12],92.7%
same,"viability, T/C","second compound 0.1 µM, first compound 1 µM",79.7%
same,"viability, T/C","second compound 0.1 µM, first compound 3.16 µM",69%
same,"viability, T/C","second compound 0.1 µM, first compound 10 µM",49.2%
same,"viability, T/C",[16],91.1%
same,"viability, T/C","second compound 0.316 µM, first compound 0.1 µM",99.8%
same,"viability, T/C",[18],88.4%
same,"viability, T/C","second compound 0.316 µM, first compound 1 µM",76.1%
same,"viability, T/C","second compound 0.316 µM, first compound 3.16 µM",75.8%
same,"viability, T/C","second compound 0.316 µM, first compound 10 µM",58.4%
same,"viability, T/C",[22],104%
same,"viability, T/C","second compound 1 µM, first compound 0.1 µM",82.9%
same,"viability, T/C",[24],78.7%
same,"viability, T/C","second compound 1 µM, first compound 1 µM",78.3%
same,"viability, T/C","second compound 1 µM, first compound 3.16 µM",69.8%
same,"viability, T/C","second compound 1 µM, first compound 10 µM",47.8%
same,"viability, T/C",[28],75.5%
same,"viability, T/C","second compound 3.16 µM, first compound 0.1 µM",80.6%
same,"viability, T/C",[30],69.6%
same,"viability, T/C","second compound 3.16 µM, first compound 1 µM",65.5%
same,"viability, T/C","second compound 3.16 µM, first compound 3.16 µM",62.9%
same,"viability, T/C","second compound 3.16 µM, first compound 10 µM",38%
same,"viability, T/C",[34],25.3%
same,"viability, T/C","second compound 10 µM, first compound 0.1 µM",26.1%
same,"viability, T/C",[36],27.1%
same,"viability, T/C","second compound 10 µM, first compound 1 µM",25.4%
same,"viability, T/C","second compound 10 µM, first compound 3.16 µM",29%
same,"viability, T/C","second compound 10 µM, first compound 10 µM",21.1%
